{"source": "patent US5714471A", "about": "“Peptide and peptide analog protease inhibitors” (SIBIA Neurosciences, Inc., priority 1995, dated 1998)", "note": "Non-standard residues stand in square brackets, D forms with d. Residues, ends and D or L forms follow the SMILES beside them. ξ: configuration not given here. *: point of attachment. Chg = N[CH](C(=O)O)C1CCCCC1; Nle = CCCC[CH](N)C(=O)O; Cbz = O=C(OCc1ccccc1)*; ξNle = CCCCC(N)C(=O)O; CHN2 = [N-]=[N+]=C*", "data": [{"tested_on": "Aβ formation in HGB 717/Swed cells", "assay": "Immunoblot assay for Aβ peptide (inhibition of Aβ formation)", "assay_type": "cell-based, human", "conditions": "concentration of 10 μM, overnight incubation, conditioned medium, relative to DMSO control", "description": "(§1) Human glioblastoma cells (ATCC Accession No. HTB16) were stably transfected with a DNA expression vector encoding a 695 amino acid isoform variant of the amyloid precursor protein (APP) containing the familial Swedish double mutations at codons 670 and 671 (K to N and M to L, respectively; see Mullan et al. (1992) Nature Genet. 1:345-347) and an additional mutation at codon 717 (V to F; see Murrell et al. (1991) Science 254:97-99) to produce cells designated HGB 717/Swed. High levels of Aβ are detectable in the conditioned medium isolated from HGb 717/Swed cultured cells. The medium also contains larger secreted fragments, α-sAPP695, which are alternatively processed APP fragments whose generation precludes Aβ formation.\n(§2) HGB 717/Swed cells were grown at 37° C. under a 5% carbon dioxide atmosphere in Dulbecco's modified eagle medium (DMEM; Gibco) supplemented with 10% heat-inactivated fetal calf serum, 0.45% glucose, 2 mM L-glutamine, 100 units/ml penicillin, and 100 μg/ml streptomycin sulfate (Gemini Bioproducts). Approximately 1×10^6 cells were incubated overnight in 5 ml of DMEM containing varying μM final concentrations of desired test compounds or a DMSO control. Conditioned medium was collected, and unwanted cells and debris were removed by sedimentation at 3,000 rpm at 4° C.\n(§3) Aβ peptides were isolated from the medium by immunoaffinity purification using an Aβ-specific antibody. To reduce the interaction of non-specific binding of unrelated proteins, such as serum proteins, to the antibody, the medium was pre-treated with rabbit antisera and Protein A Sepharose (Pharmacia) for 4 hours at 4° C. The sepharose-bound material was removed by centrifugation at 3,000 rpm at 4° C. for 10 min, and Aβ peptides were immunoaffinity purified from the clarified medium by incubation overnight with an affinity purified polyclonal rabbit antibody (referred to as 2939) prepared against a synthetic Aβ peptide corresponding to amino acids 1 to 28. Protein A-conjugated sepharose was added to immobilize the Aβ-antibody complexes, and the resin was pelleted by centrifugation at 3,000 rpm at 4° C. for 10 min. The Aβ -antibody complexes were eluted from the matrix by denaturing the complex by boiling in the presence of SDS.\n(§4) Equal portions of each sample were loaded on 16% Tricine gels (Novex), and subjected to electrophoresis. Resolved proteins were transferred from the gel to Hybond nitrocellulose (Amersham, Arlington Heights, Ill.) by electroblotting, and incubated with the commercially available monoclonal antibody 6E10 (obtained from Drs. Kim and Wisniewski, Institute for Basic Research, New York, see, published International PCT application WO 90/12871), which specifically recognizes Aβ residues 1 to 17. Specifically bound antibody was detected using a biotinylated goat anti-mouse IgG secondary antibody (Sigma), followed by the addition of streptavidin conjugated to horseradish preoxidase (Amersham, Arlington Heights, Ill.), and documented by luminescent detection (Amersham). Levels of Aβ peptides were determined by laser densitometry of visualized films. A positive result in the assay is a decrease in the formation of the 4-kDa Aβ peptides relative to the DMSO control.", "units": {"% INHIBITION OF Aβ": "%"}, "values": [{"molecule": "C=C(C)CC(C=O)NC(=O)[C@H](CC(C)C)NC(=O)[C@H](CC(C)C)NC(=O)OCc1ccccc1", "note": "(mixture of isomers) [Cbz--L--L--Lene--(H), (2SR)-N-Cbz-L-Leu-L-Leu N-[2-(4-methyl-4-pentenal)]amide]", "% INHIBITION OF Aβ": 95}, {"molecule": "C=C(C)CC(C=O)NC(=O)[C@H](Cc1ccccc1)NC(=O)[C@H](CC(C)C)NC(=O)OCc1ccccc1", "note": "(mixture of isomers) [Cbz--L--F--Lene--(H), (2SR)-N-Cbz-L-Leu-L-Phe-N-[2-(4-methyl-4-pentenal)]amide]", "% INHIBITION OF Aβ": 69}, {"molecule": "CC(=O)N[C@@H](CC(C)C)C(=O)N[C@@H](CC(C)C)C(=O)NC(C=O)CC1CCCCC1", "note": "(mixture of isomers) [Ac--L--L--Cha--(H), N-Ac-L-Leu-L-Leu-DL-cyclohexylalaninal]", "% INHIBITION OF Aβ": 46}]}, {"tested_on": "Aβ formation in HGB 717/Swed cells", "assay": "Immunoblot assay for Aβ peptide (inhibition of Aβ formation)", "assay_type": "cell-based, human", "conditions": "concentration of 40 μM, overnight incubation, conditioned medium, relative to DMSO control", "description": "as §1, §2, §3, §4", "units": {"% INHIBITION OF Aβ": "%"}, "values": [{"molecule": "C=C(C)CC(C=O)NC(=O)[C@H](CC(C)C)NC(=O)[C@H](CC(C)C)OCc1ccccc1", "note": "(mixture of isomers) [2S--benzoxyvaleric--L--Lene--(H), (2SR)-N-[(2S)-2-benzoxy-4-methylpentanoyl]-L-Leu N-[2-(4-methyl-4-pentenal)]amide]", "% INHIBITION OF Aβ": 85}, {"molecule": "CC(C)C[C@H](NC(=O)OCc1ccccc1)C(=O)N[C@@H](Cc1ccccc1)C(=O)NC(C=O)CC1CCCCC1", "note": "(mixture of isomers) [Cbz--L--F--Cha--(H), (2SR)-N-Cbz-L-Leu-L-Phe-DL-cyclohexylalaninal]", "% INHIBITION OF Aβ": 100}, {"molecule": "CCCCC(C=O)NC(=O)C(CC(C)C)NC(=O)C1CCCN1C(=O)OCc1ccccc1", "note": "[Cbz--P--L--Nl--(H), N-Cbz-L-Pro-L-Leu-L-norleucinal] (Cbz-Pro-Leu-[Nle]-aldehyde; configuration not given here)", "% INHIBITION OF Aβ": 80}, {"molecule": "N-Cbz-L-Leu-L-Leu-DL-(methyl)norleucinal [Cbz--L--L--[CH3]--Nl--(H)]", "% INHIBITION OF Aβ": 97}, {"molecule": "CCCCC(C=O)NC(=O)[C@H](CC(C)C)N(C)C(=O)[C@H](CC(C)C)NC(=O)OCc1ccccc1", "note": "(mixture of isomers) [Cbz--L--[CH3]--L--Nl--(H), N-Cbz-L-Leu-L-(methyl)Leu-DL-norleucinal]", "% INHIBITION OF Aβ": 77}]}, {"tested_on": "Aβ formation in HGB 717/Swed cells", "assay": "Immunoblot assay for Aβ peptide (inhibition of Aβ formation)", "assay_type": "cell-based, human", "conditions": "concentration of 50 μM, overnight incubation, conditioned medium, relative to DMSO control", "description": "as §1, §2, §3, §4", "units": {"% INHIBITION OF Aβ": "%"}, "values": [{"molecule": "CCCCC(C=O)NC(=O)[C@H](CC(C)C)NC(=O)[C@H](CC(C)C)NC(=O)OCC1c2ccccc2-c2ccccc21", "note": "(mixture of isomers) [Fmoc--L--L--Nl--(H), N-Fmoc-L-Leu-L-Leu-DL-norleucinal]", "% INHIBITION OF Aβ": 89}]}, {"tested_on": "Aβ formation in HGB 717/Swed cells", "assay": "Immunoblot assay for Aβ peptide (inhibition of Aβ formation)", "assay_type": "cell-based, human", "conditions": "concentration of 75 μM, overnight incubation, conditioned medium, relative to DMSO control", "description": "as §1, §2, §3, §4", "units": {"% INHIBITION OF Aβ": "%"}, "values": [{"molecule": "CC=CCC(C=O)NC(=O)[C@H](CC(C)C)NC(=O)[C@H](CC(C)C)NC(C)=O", "note": "(mixture of isomers) [Ac--L--L--Nlene--(H), (2SR)-N-Ac-L-Leu-L-Leu N [2-(trans-4-hexenal)]amide]", "% INHIBITION OF Aβ": 96}, {"molecule": "CCCCC(NC(=O)[C@H](CC(C)C)NC(=O)[C@H](CC(C)C)NC(C)=O)C(=O)C=[N+]=[N-]", "note": "(stereo partly drawn) [Ac--L--L--Nl--(DM), N-Ac-L-Leu-L-Leu-L-Nle-COCHN2] (Ac-Leu-Leu-[ξNle]-CHN2)", "% INHIBITION OF Aβ": 87}, {"molecule": "CCCCC(NC(=O)[C@H](CC(C)C)NC(=O)[C@H](CC(C)C)NC(C)=O)C(=O)C(F)(F)F", "note": "(mixture of isomers) [Ac--L--L--Nl--(TFMK), (3SR)-N-Ac-L-Leu-L-Leu N-[3-(1,1,1-trifluoro-2-oxo-heptyl)]amide]", "% INHIBITION OF Aβ": 50}, {"molecule": "CCCCC(C#N)NC(=O)[C@H](CC(C)C)NC(=O)[C@H](CC(C)C)NC(C)=O", "note": "(stereo partly drawn) [Ac--L--L--Nl--(CN), (2S)-N-Ac-L-Leu-L-Leu N-[2-(hexanenitrile)]amide]", "% INHIBITION OF Aβ": 94}, {"molecule": "CC(=O)NC(CC(C)C)C(=O)NC(CC(C)C)C(=O)NC(C=O)C1CCCCC1", "note": "[Ac--L--L--Chg--(H)] (Ac-Leu-Leu-[Chg]-aldehyde; configuration not given here)", "% INHIBITION OF Aβ": 99}]}]}
